From article PMC7392643, “Antibiotic fidaxomicin is an RdRp inhibitor as a potential new therapeutic agent against Zika virus” (BMC Medicine, 2020)

Tests used:
ZIKV ZG-01 strain = assay: In vitro antiviral assay, plaque assay, ZIKV ZG-01
Method: The anti-ZIKV activity of fidaxomicin and ribavirin was evaluated in vitro by plaque assay. Various cell lines, including SNB19 (6 × 10^4/well, 10% FBS DMEM), A172 (7 × 10^4/well, 10% FBS DMEM), Vero (6 × 10^4/well 10% FBS DMEM), Huh7 (7 × 10^4/well, 10% FBS DMEM), HUVECs (7 × 10^4/well, 15% FBS M199 medium supplemented with 2 mM L-glutamine, 0.02 mg/mL endothelial cell growth supplement, and 0.05 mg/mL heparin), and A549 (6 × 10^4/well, 5% FBS DMEM), were plated in 12-well plates and allowed to attach overnight, followed by infection with ZIKV (ZG-01 strain or MR766 strain, respectively, at indicated MOI) in the presence of different concentrations of fidaxomicin, ribavirin, or vehicle control for 1 h, followed by two washes with 1 × PBS and incubated with fresh medium (without virus) consisting of corresponding concentrations of the compounds for further 48 h. The cell supernatants were collected to quantify ZIKV infection by plaque assay as previously described or by RT-qPCR. […] The anti-DENV activity of fidaxomicin was evaluated in vitro by RT-qPCR.

ZIKV RdRp protein = target: T1, ZIKV RdRp protein (Zika virus, UniProt A0A024B7W1); assay: SPR (BIAcore) binding to ZIKV RdRp protein
T1 construct: RdRp (amino acids 272 to 903); His tag (8x histidine) (N); made in house; host or cells: Escherichia coli (Rosetta)
Method: The cDNA fragment of ZIKV (ZG-01 strain) NS5 (amino acids 1 to 903), RdRp (amino acids 272 to 903), or DENV2 NS5 (amino acids 1 to 900) containing an N-terminal His tag sequence was cloned into a pET-30a-mutant vector. For protein expression, the plasmids were transformed into Rosetta™ competent cells (TIANGEN BIOTECH Co., Ltd., Beijing, China), respectively. […] Mass spectrometry was performed by Shanghai Applied Protein Technology Co. Ltd. (Shanghai, China). The concentration of a targeted protein was measured by SDS-PAGE using BSA (Sigma, St. Louis, MO) as a standard.
Surface plasmon resonance (SPR) experiments were performed in a BIAcore T100 device (BIAcore Inc., Uppsala, Sweden) using CM5 sensor chips (General Electric Company, GE) according to the protocol provided by the manufacturer. Briefly, recombinant ZIKV NS5 protein, RdRp protein, or DENV2 NS5 protein was immobilized on a CM5 chip, respectively. Different concentrations of fidaxomicin or ribavirin were injected at a flow rate of 30 μL/min for 3 min. Subsequently, data were collected for a 3-min association followed by a 20-min dissociation. The chip was regenerated by injecting 10 μL of 15 mM NaOH for 20 s. All procedures were run in 1% DMSO PBS-P20 (GE) as a running buffer. The binding kinetics was analyzed with the software BIAevaluation version 3.1 using a 1:1 Langmuir binding model. The Kd was calculated as previously described.

T1 sequence (A0A024B7W1 2792-3423): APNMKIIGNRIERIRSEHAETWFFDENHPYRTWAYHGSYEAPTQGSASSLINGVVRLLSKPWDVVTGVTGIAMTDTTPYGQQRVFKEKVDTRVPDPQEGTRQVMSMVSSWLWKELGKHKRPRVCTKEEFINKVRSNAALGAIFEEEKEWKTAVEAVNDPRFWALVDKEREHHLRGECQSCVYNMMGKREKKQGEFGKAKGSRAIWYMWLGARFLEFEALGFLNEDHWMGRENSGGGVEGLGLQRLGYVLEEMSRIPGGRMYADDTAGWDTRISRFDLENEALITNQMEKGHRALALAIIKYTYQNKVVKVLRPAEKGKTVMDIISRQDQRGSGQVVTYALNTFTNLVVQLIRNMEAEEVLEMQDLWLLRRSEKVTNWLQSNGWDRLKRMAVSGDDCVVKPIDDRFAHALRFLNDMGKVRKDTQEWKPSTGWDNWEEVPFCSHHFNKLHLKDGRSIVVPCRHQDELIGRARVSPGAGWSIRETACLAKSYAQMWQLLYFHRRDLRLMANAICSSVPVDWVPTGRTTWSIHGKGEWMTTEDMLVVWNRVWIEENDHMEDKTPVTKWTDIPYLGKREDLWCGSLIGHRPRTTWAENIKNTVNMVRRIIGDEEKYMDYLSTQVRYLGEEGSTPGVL

CCc1c(Cl)c(O)c(Cl)c(O)c1C(=O)O[C@H]1[C@H](O)[C@H](OC)[C@H](OC/C2=C\C=C\C[C@H](O)/C(C)=C/[C@H](CC)[C@@H](O[C@@H]3OC(C)(C)[C@@H](OC(=O)C(C)C)[C@H](O)[C@@H]3O)/C(C)=C/C(C)=C/C[C@@H]([C@@H](C)O)OC2=O)O[C@@H]1C [Fidaxomicin]
EC50 lower than that of ribavirin (ZIKV ZG-01 strain; SNB19 cells): 10 fold
concentration above which ZIKV infection was completely undetectable (ZIKV ZG-01 strain; SNB19 cells, plaque assay): exceeded 18 μM
EC90 (ZIKV ZG-01 strain; SNB19 cells, plaque assay, 48 h): 8.9 ± 0.6 µM
EC50 (ZIKV ZG-01 strain; Zika virus, A549, 48 h): 12.2 ± 3.6 µM
EC90 (ZIKV ZG-01 strain; Zika virus, A549, 48 h, A549 cells, plaque assay, 48 h): 39.5 ± 4.8 µM
EC50 (ZIKV ZG-01 strain; Zika virus, Huh-7, 48 h): 7.7 ± 1.7 µM
EC90 (ZIKV ZG-01 strain; Zika virus, Huh-7, 48 h, Huh7 cells, plaque assay, 48 h): 17.8 ± 3.5 µM
EC50 (ZIKV ZG-01 strain; Zika virus, SNB-19, 48 h): 6 ± 1 µM
EC90 (ZIKV ZG-01 strain; Zika virus, SNB-19, 48 h, SNB19 cells, plaque assay, 48 h): ~9 µM
EC50 (ZIKV ZG-01 strain; Zika virus, Vero, 48 h): 11.7 ± 2.1 µM
EC90 (ZIKV ZG-01 strain; Zika virus, Vero, 48 h, Vero cells, plaque assay): 48.2 ± 5.3 µM
Kd (ZIKV RdRp protein): 23.2 µM
binding to ZIKV RdRp protein (SPR) (ZIKV RdRp protein; qualitative): strong, clear binding
